In patent US20230340012A1, “NATURAL AND SYNTHETIC COMPOUNDS FOR TREATING CANCER AND OTHER DISEASES” (PACIFIC ARROW LIMITED, priority 2009, published 2023):
Where two headings read alike, the source gives them in different places.

What was measured:
[1] = system: cancer cells; experiment: Inhibition of cancer growth, cancer invasion, cell invasion or cancer cell invasion; format: cell-based
Description: The program is based on our purification methods and biological assays including the MTT assay. See International Application No. PCT/US05/31900, filed Sep. 7, 2005, U.S. Serial No. 11/289,142, filed Nov. 28, 2005, and U.S. Serial No. 11/131551, filed May 17, 2005, and PCT/US2008/002086, 1188-ALA-PCT, filed Feb. 15, 2008, 12/344,682, 1020-B1-US, filed Dec. 29, 2008. The details of Analysis of gene expression of ES2 cells after Y-treatment by Microarray, Data Analysis Methods and Western blot in PCT/US2008/002086, 1188-ALA-PCT, filed Feb. 15, 2008, and the cell invasion experiments methods in International Application PCT/US2010/0042240, filed Jul. 16, 2010.

[2] = system: Erythrocytes (RBC); experiment: The haemolytic assay; conditions: in words, no concentration given
[3] = system: cancer cells; experiment: MTT cytotoxic assay of esterification products (Cytotoxicity activity); format: cell-based, human
Method in brief: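 Cytotoxicity was read by MTT (Carmichael method, modified), with cells seeded 24 h ahead of treatment. Sixteen human cancer lines spanning bone, lung, bladder, ovary, colon, pancreas, prostate, skin, mouth, kidney, breast, liver, brain, leukemia and cervix were used. Test samples were acyl chloride esterification products of triterpenes, as mixtures or HPLC-purified compounds.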

[4] = esterification products isolated with HPLC, graded strong / moderate / weak
[5] = MTT cytotoxic assay, isolated esterification products of E4A

Compound: CC1O[C@@H](OC2[C@H](OC3[C@H](O[C@H]4C(O[C@@H]5OC(CO)[C@H](O)[C@@H](O)C5O)[C@H](O[C@H]5CC[C@@]6(C)C(CC[C@]7(C)C6CC[C@]68O[C@H](O)[C@]9(C6CC(C)(C)[C@@H](O)[C@@H]9O)[C@H](O)C[C@]87C)C5(C)C)OC(C(=O)O)[C@H]4O)OC(CO)[C@H](O)[C@H]3O)OC(C)[C@H](O)[C@@H]2O)C(O)[C@@H](O)[C@H]1O (some centres unmarked) [AKOH-M10]
- inhibiting cancer growth, cancer invasion, cell invasion or cancer cell invasion [1]: do not show the ability

Compound: CC1(C)CC2C3=CCC4[C@@]5(C)CC[C@H](O[C@@H]6OC(C(=O)O)[C@@H](O)[C@@H](O[C@@H]7O[C@@H](CO)[C@@H](O)C7O)C6O[C@@H]6OC(CO)[C@H](O)[C@@H](O)C6O)C(C)(C)C5CC[C@@]4(C)[C@]3(C)[C@@H](O)[C@@H](O)[C@@]2(CO)[C@@H](O)[C@@H]1O (some centres unmarked) [AKOH]
- hemolytic activity [2]: no hemolytic activity
- anti-cancer activity [1]: no anti-cancer activity
- inhibiting cancer growth, cancer invasion, cell invasion or cancer cell invasion [1]: no effect
- inhibiting cancer growth, cancer invasion, cell invasion or cancer cell invasion ([1]; listed as AKOH-Y): do not show the ability

Compound: CC1(C)CC2C3=CCC4C5(C)CCC(O)C(C)(CO)C5CCC4(C)C3(C)C(O)C(O)C2(CO)C(O)C1O (centres unmarked) [Compound E4AY2]
- hemolytic activity [2]: no hemolytic activity
- anti-cancer activity [1]: no anti-cancer activity

Compound: CC1(C)CC2C3=CCC4C5(C)CCC(O)C(C)(C)C5CCC4(C)C3(C)CC(O)C2(CO)C(O)C1O (centres unmarked) [Compound E5A]
- hemolytic activity [2]: no hemolytic activity
- anti-cancer activity [1]: no anti-cancer activity
- inhibiting cancer growth, cancer invasion, cell invasion or cancer cell invasion [1]: no effect

Compound: CC=C(C)C(=O)OCC1(C)C(O)CCC2(C)C1CCC1(C)C2CC=C2C3CC(C)(C)C(O)C(OC(=O)CCCCC)C3(COC(=O)CCCCC)C(O)CC21C (centres unmarked) [Tig—Hex—3]
- Cytotoxicity activity [3, 4]: moderate

Compound: CC=CC(=O)OCC1(C)C(O)CCC2(C)C1CCC1(C)C2CC=C2C3CC(C)(C)C(O)C(OC(=O)C=CC)C3(COC(=O)C=CC)C(OC(=O)C=CC)CC21C (centres unmarked) [Compound I12]
- Cytotoxicity activity ([3]; E4A esterified with Crotonoyl chloride (Cro = Crotonoyl), compounds isolated with HPLC): weak

Compound: CC(=O)OCC1(C)C(O)CCC2(C)C1CCC1(C)C2CC=C2C3CC(C)(C)C(O)C(O)C3(COC(C)=O)C(OC(C)=O)CC21C (centres unmarked) [Compound H7]
- Cytotoxicity activity ([3]; E4A esterified with Acetyl chloride (Acy = Acetyl), compounds isolated with HPLC): moderate

Compound: CCC(CC)C(=O)OCC1(C)C(OC(=O)C(CC)CC)CCC2(C)C1CCC1(C)C2CC=C2C3CC(C)(C)C(OC(=O)C(CC)CC)C(OC(=O)C(CC)CC)C3(COC(=O)C(CC)CC)C(O)CC21C (centres unmarked) [Compound E15]
- Cytotoxicity activity [3, 5]: weak

Compound: CC1(C)CC2C3=CCC4C5(C)CCC(OC(=O)C=Cc6ccccc6)C(C)(COC(=O)C=Cc6ccccc6)C5CCC4(C)C3(C)CC(O)C2(COC(=O)C=Cc2ccccc2)C(OC(=O)C=Cc2ccccc2)C1O (centres unmarked) [Compound J9]
- Cytotoxicity activity ([3]; E4A esterified with Cinnamoyl chloride (Cin = Cinnamoyl), compounds isolated with HPLC): weak

Compound: CC1(C)CC2C3=CCC4C5(C)CCC(OC(=O)c6ccccc6)C(C)(COC(=O)c6ccccc6)C5CCC4(C)C3(C)CC(O)C2(COC(=O)c2ccccc2)C(OC(=O)c2ccccc2)C1O (centres unmarked) [Compound K14]
- Cytotoxicity activity ([3]; E4A esterified with 2-propenoyl chloride (Ppe = Propenoyl), compounds isolated with HPLC): weak
- Cytotoxicity activity ([3]; E4A esterified with Propionyl chloride (Ppi = Propionyl), compounds isolated with HPLC): weak
- Cytotoxicity activity ([3]; E4A esterified with benzoyl chloride (Ben = benzoyl), compounds isolated with HPLC): weak
- Cytotoxicity activity ([3]; esterification products of core compound E4A with (2E)-2-pentenoyl chloride (2pe = 2-pentenoyl)): weak
- Cytotoxicity activity ([3]; esterification products of core compound E4A with Butyryl chloride (But = Butyryl)): weak
- Cytotoxicity activity ([3]; esterification products of core compound E4A with Decanoyl chloride (Dec = Decanoyl)): weak
- Cytotoxicity activity ([3]; esterification products of core compound E4A with Isobutyryl chloride (Iso = Isobutyryl)): weak
- Cytotoxicity activity ([3]; esterification products of core compound E4A with Myristoyl chloride (Myr = Myristoyl)): weak
- Cytotoxicity activity ([3]; esterification products of core compound E4A with Octanoyl chloride (Oct = Octanoyl)): weak

Compound: CC=C(C)C(=O)OCC12C(O)CC3(C)C(=CCC4C5(C)CCC(O)C(C)(CO)C5CCC43C)C1CC(C)(C)C(OC(=O)C(C)=CC)C2O (centres unmarked) [Compound A25]
- Cytotoxicity activity [3, 5]: moderate

Compound: CC=C(C)C(=O)OCC1(C)C(O)CCC2(C)C1CCC1(C)C2CC=C2C3CC(C)(C)C(OC(=O)C(C)=CC)C(O)C3(COC(=O)C(C)=CC)C(O)CC21C (centres unmarked) [Tig—Ang—2]
- Cytotoxicity activity [3, 4]: moderate

Compound: CCCCCC(=O)OCC1(C)C(OC(=O)CCCCC)CCC2(C)C1CCC1(C)C2CC=C2C3CC(C)(C)C(O)C(O)C3(CO)C(O)CC21C (centres unmarked) [Compound D31]
- Cytotoxicity activity [3, 5]: moderate

Compound: CCC(CC)C(=O)OCC1(C)C(OC(=O)C(CC)CC)CCC2(C)C1CCC1(C)C2CC=C2C3CC(C)(C)C(O)C(O)C3(COC(=O)C(CC)CC)C(OC(=O)C(CC)CC)CC21C (centres unmarked) [Compound E10]
- Cytotoxicity activity [3, 5]: weak

Compound: CC=C(C)C(=O)OCC1(C)C(O)CCC2(C)C1CCC1(C)C2CC=C2C3CC(C)(C)C(OC(=O)C(C)=CC)C(O)C3(CO)C(O)CC21C (centres unmarked) [Compound A29]
- Cytotoxicity activity [3, 5]: moderate
